Laboratory results: patent US20250236600A1, “SUBSTITUTED VINYL PIPERAZINE-PIPERIDINE UREA DERIVATIVES AS ANTICANCER AGENTS” (UNIVERSITA' DEGLI STUDI DI PAVIA, priority 2021, published 2025)
Entries after “also recorded” stand apart in the source; their conditions may differ.

Legend:
RPMI 8226 cells [1] = assay: Sulforhodamine B (SRB) cell viability assay, RPMI 8226; assay type: cell-based, Human; conditions: RPMI 8226, SRB assay, 24 hours; for IC20 / IC50: Homo sapiens
Text: (§1) Sulforhodamine B (SRB) assay was used to evaluate RPMI 8226 cell viability in vitro. It is a widely used method to evaluate cell viability and cytotoxicity. This method relies on the property of SRB, which binds stoichiometrically to proteins under mild acidic conditions. Thus, the amount of bound dye can be used as measure of cell proliferation.
(§2) Human RPMI 8226 and U87-MG cells were growth in culture medium (DMEM low glucose for U87-MG and RPMI 1640 for RPMI 8226), supplemented with 10% fetal bovine serum, 1% L-glutamine, 1% penicillin and streptomycin. Cells were maintained in a humidified incubator at 37° C. and 5% CO2. For SRB assay, 1×10^4/well cells were seeded in a 96-well plate and were treated with increasing concentrations of the compounds (1-20 μM). After 24 hours, cells were fixed with 10% trichloroacetic acid and were stained with SRB solution. Excess of dye was removed by washing with 1% acetic acid. The protein-bound dye was then dissolved in 10 mM Tris base solution and absorbance was measured at 510 nm using a microplate reader.
(§3) Statistical analysis of the data obtained was performed using the one-way analysis of variance (ANOVA) and the Dunnet's post-hoc test. Values of p<0.01 (**) were considered statistically significant.
(§4) The results, expressed as the mean±standard deviation, represents the percentage of viable cells compared to untreated control (arbitrarily set to 100%).
(§5) FIG. 7 represents the results obtained in U87-MG cells after treatment with compound 26 (A), 27 (B), 28 (C) 29 (D) and 30 (E). FIG. 8 represents the results obtained for RPMI 8226 cells after treatment with compound 26 (A), 27 (B), 28 (C) 29 (D) and 30 (E). Cells were treated for 24 hours with increasing concentrations of compounds (1, 5, 10 and 20 μM).

[2] = test system: dorsal root ganglia (DRG); assay: NGF-induced neurite outgrowth of DRG organotypic cultures (neurotoxic effect); assay type: cell-based, embryonic Sprague-Dawley rats; conditions: for neurotoxicity in vitro (result in words): concentrations = IC20, IC50, IC80 of U87-MG SRB assay, neurotoxic if neurites length less than 50% of control
Experimental: Evaluation of NGF-induced neurite outgrowths was performed on dorsal root ganglia (DRG) of 15-day-old embryonic Sprague-Dawley rats. Briefly, DRG were aseptically collected and plated onto collagen coated dishes. DRG were cultured in AN2 medium supplemented with 5 ng/mL NGF in a 5% CO2 humidified incubator at 37° C. DRG were treated after 2 hours with increasing concentrations of compounds, corresponding to IC20, IC50 and IC80 in U87-MG SRB assay. Micrographs of DRG were taken after 24 and 72 hours of treatment and neurite elongation was manually measured using ImageJ software.
(§6) Statistical analysis of the data obtained was performed using the ANOVA and the Dunnet's post-hoc test. Values of p<0.01 (**) were considered statistically significant.
The results, expressed as the mean±standard deviation, represents the percentage of neurite outgrowth compared to untreated control (arbitrarily set to 100%).
According to this method of in vitro neurotoxicity evaluation, a compound can be considered neurotoxic if neurites length is less than 50% of the control.

RPMI 8226 cells [3] = assay: Boyden chamber cell invasion, RPMI 8226; assay type: cell-based, Human; conditions: RPMI 8226, treated at IC20 of SRB assay, 24 hours; for cell invasion compared to untreated control: control = 100%; for cell invasion (result in words): FIG. 10B
Experimental: (§7) Cell invasion is evaluated by Boyden Chamber. In Boyden chamber, cells attracted by a chemoattractant pass through a porous membrane coated with gelatine. This in vitro assay is indicative of the ability of cells to cross an extracellular substrate and invade surrounding tissues. U87-MG and RPMI cells were resuspended in FBS-free medium, with or without treatments. IC20 obtained in SRB assay was used as compound treatment concentration, in order to not affect the invasion results with a too high mortality. 5×10^3 cells/well were seeded in the upper compartment of the Boyden chamber. In the lower compartment a complete medium supplemented with 10% FBS was placed. FBS was used as chemoattractant. Between the two compartments, a gelatine coated polycarbonate membrane with 8 μm pores was placed. The Boyden chamber, thus set up, was placed at 37° C. in an incubator for 24 hours (RPMI 8226 cells) or for 16 hours (U87-MG cells). After incubation membrane was removed and cells on the lower surface of the membrane were fixed and stained with Diffquick staining kit. Micrographs were taken and cells were counted using ImageJ software.
as §6
(§8) The results, expressed as the mean±standard deviation, represents the percentage of cells that are able to pass through the membrane compared to untreated control (arbitrarily set to 100%).

U87-MG cells [4] = assay: Sulforhodamine B (SRB) cell viability assay, U87-MG; assay type: cell-based; conditions: Homo sapiens, U-87 MG, 24 hours
Text: as §1, §2, §3, §4, §5

U87-MG cells [5] = assay: Scratch wound healing cell migration assay; assay type: cell-based, Human; conditions: 1-10 μM, 24 hours, FIG. 9
Experimental: FIG. 9 represent cell migration assays on U87-MG cells.
The scratch wound healing assay evaluates the ability of cells to close a manually created gap on the cell monolayer in vitro. This assay is indicative of cell motility and the ability of cells to propagate locally.
Cells were seeded in 6-well plates and were incubated until reaching confluence. At this point, using a plastic tip, a scratch was manually created on the surface of the cell monolayer. Culture medium was then replaced with fresh medium with or without treatments. Cells were treated with increasing concentrations of the compounds (1-10 μM). Micrographs were taken immediately after the scratch (t0) and 24 hours later (t24). The area of the scratch was measured using ImageJ software and cell migration area was calculated by subtracting the t24 area from the t0 area.
as §3
The results, expressed as the mean±standard deviation, represents the percentage of the cell migration area compared to untreated control (arbitrarily set to 100%).

Proteasome [6] = assay: Proteasome activity (7-Amido-4-Methylcoumarin fluorescent probe) in U87-MG cells; assay type: cell-based, Human; conditions: treated at IC50 of SRB assay, 24 hours; for proteasome inhibition: FIG. 11A
Experimental: (§9) Proteasome is a cellular complex responsible for the degradation of a high amount of regulatory, misfolded or damaged intracellular proteins. It is considered an important target for anticancer therapy. Proteasome activity was evaluated by 7-Amido-4-Methylcoumarin fluorescent probe. U87-MG and RPMI 8226 cells were cultured in 6 well-plates at 25×10^4 cells/well density and were treated with IC50 concentration of each compound (calculated in SRB assay). After 24 hours of treatment, cells were collected and total protein extracts were obtained. Lysis buffer (5 mM Hepes pH 7.5, 150 mM NaCl, 10% glycerol, 1% Triton X100, 1.5 mM MgCl2, 5 mM EGTA) was […] with proteases and phosphatases inhibitors. Protein content was quantified using Bradford method. 40 μg of proteins were mixed with proteasome buffer (250 mM Hepes pH 7.5, 5 mM EDTA, 0.5% NP-40, 0.01% SDS) and 2.2 mM 7-Amido-4-Methylcoumarin. After 2 hours of incubation at 37° C., fluorescence was quantified in a microplate reader (excitation 380 nm, emission 460 nm). Statistical analysis of the data obtained was performed using the ANOVA and the Dunnet's post-hoc test. Values of p<0.01 (**) were considered statistically significant. The results, expressed as the mean±standard deviation, represents the percentage of proteasome activity compared to untreated control (arbitrarily set to 100%).

Proteasome [7] = assay: Proteasome activity (7-Amido-4-Methylcoumarin fluorescent probe) in RPMI 8226 cells; assay type: cell-based, Human; conditions: RPMI 8226, treated at IC50 of SRB assay, 24 hours
Experimental: as §9

U87-MG cells [8] = assay: Boyden chamber cell invasion, U87-MG; assay type: cell-based, Human; conditions: treated at IC20 of SRB assay, 16 hours, FIG. 10A
Experimental: as §7, §6, §8

IC50 (U87-MG cells [4]) | Structure (SMILES) | IC20 (RPMI 8226 cells [1]) | IC50 (RPMI 8226 cells [1]) | IC80 (RPMI 8226 cells [1]) | concentration up to which not neurotoxic ([2]; rat DRG neurite outgrowth, 24 and 72 hours) | neurotoxicity in vitro (result in words) ([2]; rat DRG, 24 and 72 hours) | cell invasion compared to untreated control (RPMI 8226 cells [3]) | cell migration (result in words) (U87-MG cells [5]) | proteasome inhibition (result in words) (Proteasome [6]) | proteasome inhibition (Proteasome [6]) | proteasome inhibition (result in words) (Proteasome [7]) | cell invasion (result in words) (U87-MG cells [8]) | cell invasion (result in words) (RPMI 8226 cells [3]) | neurite length, percentage of untreated control ([2]; rat DRG, all evaluated concentrations)
13.3 ± 0.6 µM | C/C(=C\CN1CCN(C(=O)NC2CCCC2)CC1)c1ccc2ccccc2c1 [Compound 26, (E)-N-cyclopentyl-4-(3-(naphthalen-2-yl)but-2-en-1-yl)piperazine-1-carboxamide] | 22.6 ± 2 µM | 7.9 ± 0.7 µM | 3.9 ± 1.2 µM | up to 13 μM | at the highest concentration evaluated it was found to be neurotoxic | ~80% | weak ability to reduce migration | able of inhibiting the proteasome activity | ~50% | able of inhibiting the proteasome activity | weak effect against cell invasion |  | 
10 ± 0.5 µM | C/C(=C\CN1CCN(C(=O)NC2CCCCC2)CC1)c1ccc2ccccc2c1 [Compound 27, (E)-N-cyclohexyl-4-(3-(naphthalen-2-yl)but-2-en-1-yl)piperazine-1-carboxamide] | 9.5 ± 3.7 µM | 6.4 ± 0.3 µM | 4.2 ± 2.1 µM |  | not neurotoxic at all evaluated concentrations and time points | ~80% | strong cell migration inhibitors |  |  | not an inhibitory effect | weak effect against cell invasion |  | 

The remaining lines, values behind:

Structure (SMILES) | IC50 (U87-MG cells [4]) | IC20 (RPMI 8226 cells [1]) | IC50 (RPMI 8226 cells [1]) | IC80 (RPMI 8226 cells [1]) | concentration up to which not neurotoxic ([2]; rat DRG neurite outgrowth, 24 and 72 hours) | neurotoxicity in vitro (result in words) ([2]; rat DRG, 24 and 72 hours) | cell invasion compared to untreated control (RPMI 8226 cells [3]) | cell migration (result in words) (U87-MG cells [5]) | proteasome inhibition (result in words) (Proteasome [6]) | proteasome inhibition (Proteasome [6]) | proteasome inhibition (result in words) (Proteasome [7]) | cell invasion (result in words) (U87-MG cells [8]) | cell invasion (result in words) (RPMI 8226 cells [3]) | neurite length, percentage of untreated control ([2]; rat DRG, all evaluated concentrations)
C/C(=C\CN1CCN(C(=O)Nc2ccc(C)cc2)CC1)c1ccc2ccccc2c1 [Compound 28, (E)-4-(3-(naphthalen-2-yl)but-2-en-1-yl)-N-(p-tolyl)piperazine-1-carboxamide] | 10.8 ± 1.8 µM | 7.1 ± 0.6 µM | 3.7 ± 0.6 µM | 1.9 ± 0.5 µM |  | not neurotoxic at all evaluated concentrations and time points |  | strong cell migration inhibitors | able of inhibiting the proteasome activity |  | able of inhibiting the proteasome activity | very effective in reducing cell invasion; also recorded: significantly able of inhibiting the invasion | statistically significant, however lower than the one obtained in U87-MG cells | 
COc1ccc2cc(/C(C)=C/CN3CCN(C(=O)Nc4ccc(C(F)(F)F)cc4)CC3)ccc2c1 [Compound 29, (E)-4-(3-(6-methoxynaphthalen-2-yl)but-2-en-1-yl)-N-(4-(trifluoromethyl)phenyl)piperazine-1-carboxamide] | 7.1 ± 0.1 µM | 8.1 ± 0.3 µM | 4.8 ± 0.1 µM | 2.9 ± 0.1 µM |  | not neurotoxic at all evaluated concentrations and time points |  | strong cell migration inhibitors | only a weak inhibitory effect; also recorded: only weak inhibitory activity | ~50% | only a weak inhibitory effect; also recorded: only weak inhibitory activity | reduced cell invasion, but it was less effective than compound 28; also recorded: significantly able of inhibiting the invasion | statistically significant, however lower than the one obtained in U87-MG cells | 
COc1ccc2cc(/C(C)=C/CN3CCN(C(=O)Nc4c(F)cccc4F)CC3)ccc2c1 [Compound 30, (E)-N-(2,6-difluorophenyl)-4-(3-(6-methoxynaphthalen-2-yl)but-2-en-1-yl)piperazine-1-carboxamide] | 12.2 ± 0.3 µM | 7.3 ± 0.1 µM | 4.5 ± 0.2 µM | 2.9 ± 0.1 µM |  | not neurotoxic in vitro; also recorded: not neurotoxic at all evaluated concentrations | ~80% | strong cell migration inhibitors |  |  | only a weak inhibitory effect | not effective |  | higher than 50%
